Key:
[1] = system: CT26 mouse syngeneic colon tumor; assay: Combination therapy of peptides with doxorubicin in CT26 syngeneic colon tumor model; format: in vivo; details: flow cytometry, FIG. 6e
Procedure: (§1) 6-8-week-old WT Balb/c mice were purchased. Mice was cared and maintained under the guidelines of the Institutional Animal Care and Use Committee (IACUC) of Kyungpook National University (2014-0001-8.). Tumor was injected onto the lower right flank of the mice. For the in-vivo homing imaging, the tumor was developed for 7 days, after the tumor size reached to 100 mm^3, the mice were injected with 100 μl of […] Flamma-675 NIR fluorescence dye labelled peptides and allow the complete circulation for an hour. After incubation, the mice were anesthetized, and the image was taken using the IVIS imaging system. […] Tumor size was measured using a digital caliper, and the tumor volume was calculated using the formula (Volume ¼ (L−W−H)/2. (Length: longest dimension, Width: shorter dimension, parallel to the mouse body and Height: perpendicular to the length and width). All mice were checked for the ulceration and at the end of the treatment and the mice were sacrificed for the immune cell analysis.
(§2) Tumors were isolated, minced and incubated with a digestion buffer containing collagenase D (5 mg/ml) with the RPMI-1640 medium at 37° C. for 40 min. […] The single cell suspension was made ready to use and CD45 antibody was used to stain the tumor infiltrating leukocytes and then analyzed with following antibodies for CD4, CD8 and F4/80. […]

CT26 syngeneic tumor = assay: Antitumor therapy in CT26 syngeneic mouse model (peptide alone); format: in vivo; details: i.v. every alternative day, 24 days, FIG. 5b
Procedure: as §1, §2

PD-L1 on MDA MB231 cells = assay: Peptide and receptor internalization assay in MDA MB231 cells; format: cell-based, human; details: MDA MB231, FIG. 2d
Procedure: MDA MB231, CT26, MCF7, Hek29 cells (1×10^5) were seeded in eight well chamber slides for overnight. Next day, the cells were washed twice with PBS and incubated with 1% BSA at RT for 1 hr to reduce the non-specific binding of peptides. The cells were then incubated with different concentration ([…]) of FITC conjugated peptide for 1 hr at 4° C. After fixation, cells were washed, and counter stained with DAPI, mounted and subjected to confocal microscopy (Zeiss, Oberkochen, Germany). For the peptide internalization assay, the MDA MB231 cells were incubated with […] concentration of FITC-conjugated peptides at 37° C. for 1 hr 30 min, the procedure was then continued as previously described. For the receptor internalization assay, first the internalization of peptide was obtained as described above and then after several washing steps with PBS, the PD-L1 antibody (1:100 dilution) was incubated with the cell for 1 hr 30 min at 37° C. […] For flow cytometry, cells (1×10^6) were harvested and then suspended in the culture medium containing 1% BSA at RT for 1 hr for blocking and then incubated with FITC-labelled PD-L1 for another 1 hr at 4° C. After several washing, 300 ul of cell suspension with PBS was subjected to flow cytometry (BD, Franklin Lakes, N.J.). […]

Row | Substance | percentage of CD4+ T cells in tumor tissue, increased value ("to") [1] [%] | tumor volume control compared to control peptide and PBS group (CT26 syngeneic tumor) | surface PD-L1 antibody staining after peptide internalization (receptor internalization) (PD-L1 on MDA MB231 cells)
1 | CLQKTPKQC [PD-L1Pep-1] | 6 | robust effect | 
2 | NSSSVDK (phage coat protein used as control peptide) |  |  | did not decrease

Source: patent publication US11306119B2, “Peptide bound to PD-L1 and use thereof” (KYUNGPOOK NATIONAL UNIVERSITY INDUSTRY-ACADEMIC COOPERATION …, priority 2017, dated 2022)
